Series [1] is described as follows: Metabolic stability in mouse liver microsomes assessed as intrinsic clearance. The note with it: liver microsomes, read-out: CLH. It counts as ADME, Microsome. (Liver microsomes are vesicles of endoplasmic reticulum, rich in cytochrome P450 enzymes.)
Series [2] in a line: Inhibition of human PSEN2/APH1A expressed in MEF cells with Psen1/2 double knockout/Aph1ABC triple knockout by ELISA. Type of series: cell-based. On the technique in general: In an ELISA, binding on a coated surface is turned into a signal by an enzyme label.
The nature of series [3]: Metabolic stability in human liver microsomes assessed as intrinsic clearance. The note with it: liver microsomes, read-out: CLH. It counts as ADME, Microsome.
Series [4] can be described thus: Inhibition of human PSEN1/APH1A expressed in MEF cells with Psen1/2 double knockout/Aph1ABC triple knockout by ELISA. It counts as cell-based.
Series [5] is described as follows: Inhibition of human PSEN2/APH1B expressed in MEF cells with Psen1/2 double knockout/Aph1ABC triple knockout by ELISA. It counts as cell-based.
The nature of series [6]: Inhibition of human PSEN1/APH1B expressed in MEF cells with Psen1/2 double knockout/Aph1ABC triple knockout by ELISA. It counts as cell-based.
Series [7] is filed under the species Homo sapiens. Kind of series: Selectivity ratio of IC50 for human PSEN2/APH1B expressed in MEF cells with Psen1/2 double knockout/Aph1ABC triple knockout to IC50 for human PSEN1/APH1B expressed in MEF cells with Psen1/2 double knockout/Aph1ABC triple knockout. Type of series: cell-based.
The species named for series [8] is Homo sapiens. Kind of series: Selectivity ratio of IC50 for human PSEN2/APH1A expressed in MEF cells with Psen1/2 double knockout/Aph1ABC triple knockout to IC50 for human PSEN1/APH1B expressed in MEF cells with Psen1/2 double knockout/Aph1ABC triple knockout. It counts as cell-based.
Series [9] is filed under the species Homo sapiens. The experiment in a line: Selectivity ratio of IC50 for human PSEN1/APH1A expressed in MEF cells with Psen1/2 double knockout/Aph1ABC triple knockout to IC50 for human PSEN1/APH1B expressed in MEF cells with Psen1/2 double knockout/Aph1ABC triple knockout. Type of series: cell-based.
For series [10], the system named is MEF. Kind of series: Inhibition of human PSEN1/APH1B expressed in MEF cells with Psen1/2 double knockout/Aph1ABC triple knockout at 10 uM by ELISA relative to control. Type of series: cell-based.

Some results are limits rather than exact numbers.

As usually defined, the IC50 is the concentration that gives 50% inhibition. Read a high IC50 as lower potency. Usually inhibition stands for the drop in the measured response relative to a control, in per cent. The low end stands for a weak effect, the high end for a strong effect.

`O=S(=O)(c1ccc(Cl)cc1)N1[C@H]2CC[C@@H]([C@H]1c1ccc(C(F)(F)F)cc1)[C@@H](O)C2` (racemic) [listing 1 of 2 here]: the microsomal CLint in [1] and in series [3] was greater than 347 µL/min/mg throughout. In addition, the IC50 amounted to 2.82 µM in [2], 0.0417 µM in series [4], 2.45 µM in series [5] and 0.0072 µM in series [6].

`CCOC(=O)Nc1ccc([C@@H]2[C@@H]3CC[C@@H](CC3=O)N2S(=O)(=O)c2ccc(Cl)cc2)cc1` (racemic): the IC50 came to 6.17 µM in [2], 3.23 µM in [4], 6.46 µM in [5] and 0.288 µM in series [6]. Moreover, the results for the Ratio IC50 in series [7], in [8] and in series [9] were greater than 20, greater than 20 and greater than 11, respectively.

On to `COc1ccc([C@@H]2[C@@H]3CC[C@@H](CC3=O)N2S(=O)(=O)c2ccc(Cl)cc2)cn1` (racemic), for which the IC50 in series [2] is greater than 10 µM; in series [4], 0.794 µM; in series [5], greater than 10 µM; in series [6], 0.195 µM. The Ratio IC50 in series [7] and in series [8] was greater than 5 throughout.

Consider `O=S(=O)(c1ccc(Cl)cc1)N1[C@H]2CC[C@@H]([C@H]1c1ccccc1Cl)[C@@H](O)C2` (racemic), for which the IC50 stood at 0.131 µM in series [2], 0.012 µM in series [4], 0.214 µM in series [5] and 0.003 µM in series [6]. In addition, the Ratio IC50 in [7] stood at 100; in [8] it was 40; in [9], 2.

With `O=C1C[C@@H]2CC[C@H]1[C@H](c1cc(F)ccc1F)N2S(=O)(=O)c1ccc(Cl)cc1`, in [10], the inhibition turned out to be 45%.

With `O=C1NCCCC[C@H]1N(Cc1ccc(Br)cc1)S(=O)(=O)c1ccc(Cl)cc1`, the half-inhibitory concentration (IC50) in [2] was 4.11 µM; in [4], 0.0383 µM; in series [5] it was 1.71 µM; in [6], 0.0245 µM. For the same compound, the Ratio IC50 in [7] and in series [8] was greater than 60 in each case.

In the case of `N#Cc1ccc([C@@H]2[C@@H]3CC[C@@H](C[C@@H]3O)N2S(=O)(=O)c2ccc(Cl)cc2)c(F)c1` (racemic), the IC50 in [2] is 0.147 µM; in [4] it was 0.0069 µM; in [5], 0.257 µM; in series [6], 0.0024 µM. For the same compound, the Ratio IC50 in series [7] was 100; in series [8], 40; in series [9], 2.

For the compound `O=C1C[C@@H]2CC[C@H]1[C@@H](c1ccc(C(F)(F)F)cc1)N2S(=O)(=O)c1ccc(Cl)cc1` (racemic), the IC50 was greater than 10 µM in [2], 0.316 µM in series [4], greater than 5 µM in series [5] and 0.034 µM in series [6]. Moreover, the Ratio IC50 is greater than 150 in series [7], greater than 150 in series [8] and 9 in series [9].

Turning to `O=S(=O)(c1ccc(Cl)cc1)N1[C@H]2CC[C@H]([C@H](O)C2)[C@H]1c1ccc(C(F)(F)F)cc1`, the Ratio IC50 in [7] and in series [8] was 15 throughout.

As to `O=S(=O)(N[C@H]1CC[C@@](c2cc(F)ccc2F)(S(=O)(=O)c2ccc(Cl)cc2)CC1)C(F)(F)F`, the IC50 in series [2] stood at 0.153 µM; in [4], 0.0014 µM; in series [5], 0.139 µM; in [6] it was 0.00042 µM. The Ratio IC50 in [7] and in series [8] was greater than 300 each time.

Regarding `O=C1C[C@@H]2CC[C@H]1[C@@H](c1ccc(OC(F)(F)F)cc1)N2S(=O)(=O)c1ccc(Cl)cc1` (racemic), the IC50 was greater than 10 µM in series [2], 1.62 µM in series [4], greater than 10 µM in series [5] and 0.19 µM in [6]. Further, the Ratio IC50 in series [7] and in [8] was greater than 5 each time.

In the case of `O=C1C[C@@H]2CC[C@H]1[C@@H](c1cc(F)ccc1F)N2S(=O)(=O)c1ccc(Cl)s1` (racemic), the IC50 is greater than 10 µM in [2], 7.08 µM in [4], greater than 10 µM in [5] and 0.512 µM in [6]. Moreover, in [9], the Ratio IC50 amounted to 13.

`Cc1ccc(S(=O)(=O)N2[C@H]3CC[C@H](C(=O)C3)[C@H]2c2ccc(C(F)(F)F)cc2)cc1` (racemic): the IC50 was greater than 5 µM in series [2], 0.281 µM in series [4], greater than 5 µM in series [5] and 0.055 µM in series [6]. In addition, the Ratio IC50 in series [7] and in series [8] was greater than 100 each time.

As for `COc1ccc(S(=O)(=O)N2[C@H]3CC[C@H](C(=O)C3)[C@H]2c2ccc(C(F)(F)F)cc2)cc1` (racemic), the IC50 is greater than 10 µM in [2], greater than 10 µM in [4], greater than 10 µM in series [5] and 1.45 µM in [6]. In [9], the Ratio IC50 was greater than 40.

Regarding `O=C1C[C@@H]2CC[C@H]1[C@@H](c1ccc(C(F)(F)F)nc1)N2S(=O)(=O)c1ccc(Cl)cc1` (racemic), the IC50 in [2] is greater than 10 µM; in series [4] it was 0.69 µM; in [5], greater than 10 µM; in series [6], 0.39 µM. For the same compound, the Ratio IC50 in series [7] and in [8] was greater than 11 in each case.

As for `N#Cc1ccc(S(=O)(=O)N2[C@H]3CC[C@H](C(=O)C3)[C@H]2c2ccc(C(F)(F)F)cc2)cc1` (racemic), the IC50 is greater than 10 µM in [2], greater than 10 µM in series [4], greater than 10 µM in [5] and 1.55 µM in series [6]. Besides, the Ratio IC50 in [9] is greater than 40.

Take `O=C1C[C@@H]2CC[C@H]1[C@@H](c1cc(F)ccc1F)N2S(=O)(=O)c1ccc(Cl)cc1` (racemic): the IC50 in series [2] was greater than 10 µM; in series [4], 1.02 µM; in series [5], greater than 10 µM; in series [6] it was 0.426 µM. Also, the Ratio IC50 in series [7] and in [8] was 25 each time.

Take `O=C1C[C@@H]2CC[C@H]1[C@@H](c1ccc(F)c(F)c1)N2S(=O)(=O)c1ccc(Cl)cc1` (racemic): the IC50 in [2] is greater than 10 µM; in series [4], greater than 5.37 µM; in series [5], greater than 10 µM; in series [6] it was 1.12 µM. In addition, the Ratio IC50 in [9] was greater than 3.

In the case of `O=S(=O)(c1ccc(Cl)cc1)N1[C@H]2CC[C@@H]([C@H]1c1ccc(C(F)(F)F)cc1)[C@@H](O)C2` (racemic) [listing 2 of 2 here], the Ratio IC50 in [7] was greater than 330; in [8] it was greater than 390; in series [9] it was greater than 5.

With `O=S(=O)(c1ccc(Cl)cc1)N1[C@H]2CC[C@@H]([C@H]1c1cc(F)ccc1F)[C@@H](O)C2` (racemic), the IC50 in series [2] came to 0.37 µM; in series [4] it was 0.037 µM; in series [5], 0.38 µM; in series [6], 0.025 µM. For the same compound, the Ratio IC50 in series [7] and in [8] was 12 in each case.

For `O=C1C[C@@H]2CC[C@H]1[C@@H](c1ccc(Cl)cc1)N2S(=O)(=O)c1ccc(Cl)cc1` (racemic), the IC50 is greater than 10 µM in series [2], 1.35 µM in series [4], greater than 10 µM in [5] and 0.182 µM in [6]. The Ratio IC50 in series [7] and in series [8] was greater than 5 throughout.

Take `N#Cc1ccc([C@@H]2[C@@H]3CC[C@@H](C[C@@H]3O)N2S(=O)(=O)c2ccc(Cl)cc2)cn1` (racemic): the microsomal CLint came to 118 µL/min/mg in series [1] and 111 µL/min/mg in [3]. The IC50 amounted to 0.741 µM in series [2], 0.067 µM in [4], 2.18 µM in [5] and 0.012 µM in series [6].

As to `O=S(=O)(c1ccc(Cl)cc1)N1[C@@H]2CCC[C@H]1c1cn[nH]c1C2`, the IC50 was determined as 0.272 µM in series [2], 0.0472 µM in series [4] and 0.38 µM in series [5]. In addition, the Ratio IC50 in series [7] and in [8] was greater than 260 throughout.

For the origin of these results see ChEMBL document CHEMBL5625242, “Discovery of brain permeable 2-Azabicyclo[2.2.2]octane sulfonamides as a novel class of presenilin-1 selective γ-secretase inhibitors” (Eur J Med Chem, 2023).
